These results are taken from article PMC8865125, “Isocoumarins: a new class of selective carbonic anhydrase IX and XII inhibitors” (Journal of Enzyme Inhibition and Medicinal Chemistry, 2022).

Each structure is given as a SMILES string. Like-named read-outs stand apart in the source and are kept apart here.

What all share (experiment): stopped-flow CO2 hydrase assay
Common to all, as to format: biochemical

The target in one experiment is T1, hCA I (Homo sapiens, UniProt P00915).
T1 construct: gene CA1; recombinant
T1 sequence (P00915 2-261): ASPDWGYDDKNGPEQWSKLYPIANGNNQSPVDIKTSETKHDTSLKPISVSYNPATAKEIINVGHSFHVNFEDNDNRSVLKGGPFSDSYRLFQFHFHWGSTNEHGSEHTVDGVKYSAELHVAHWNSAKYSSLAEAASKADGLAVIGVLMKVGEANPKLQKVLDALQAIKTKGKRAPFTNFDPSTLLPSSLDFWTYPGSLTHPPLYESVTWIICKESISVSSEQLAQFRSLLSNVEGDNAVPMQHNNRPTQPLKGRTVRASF
Conditions: read-out: KI (μM)^a^,b / hCA I. The source says:
stopped-flow CO2 hydrase assay on hCA I

Experiment [1] has as its target T2, hCA XII (Homo sapiens, UniProt O43570).
T2 construct: gene CA12; recombinant
Conditions: read-out: KI (μM)^a^,b / hCA XII. An excerpt:
stopped-flow CO2 hydrase assay on hCA XII

Another experiment deals with T3, hCA II (Homo sapiens, UniProt P00918).
T3 construct: gene CA2; recombinant
Conditions: read-out: KI (μM)^a^,b / hCA I.

The target of experiment [2] is T4, hCA IX (Homo sapiens, UniProt Q16790).
T4 construct: gene CA9; recombinant
Particulars: read-out: KI (μM)^a^,b / hCA IX. The source says: stopped-flow CO2 hydrase assay on hCA IX

Experiment [3] addresses T4, hCA IX. Particulars: read-out: KI (μM)^a^,b / hCA I.
Experiment [4] concerns the target T2, hCA XII. Particulars: read-out: KI (μM)^a^,b / hCA I.

T2 sequence (O43570 25-354 limits assumed): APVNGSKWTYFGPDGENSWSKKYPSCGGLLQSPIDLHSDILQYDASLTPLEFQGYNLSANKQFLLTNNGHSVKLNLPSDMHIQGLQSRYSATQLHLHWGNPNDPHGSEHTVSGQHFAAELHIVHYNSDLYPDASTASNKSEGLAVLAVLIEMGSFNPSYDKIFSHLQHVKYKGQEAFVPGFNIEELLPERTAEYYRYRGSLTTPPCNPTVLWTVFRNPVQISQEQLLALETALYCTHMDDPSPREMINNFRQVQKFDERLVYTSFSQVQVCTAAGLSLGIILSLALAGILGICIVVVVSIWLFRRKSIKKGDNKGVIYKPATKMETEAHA

Take `CC(=NNc1ccccc1)c1cc2ccccc2c(=O)o1` [X1, 3–(1-(2-phenylhydrazono)ethyl)-1H-isochromen-1-one]: the Ki was greater than 100 µM at hCA I, 1.9 µM at hCA XII [1], greater than 100 µM on hCA II and 4.3 µM at hCA IX [2].
As for `CC(=NNc1ccc(Cl)cc1)c1cc2ccccc2c(=O)o1` [X2, 3–(1-(2–(4-chlorophenyl) hydrazono)ethyl)-1H-isochromen-1-one], the Ki was greater than 100 µM at hCA I, 4.6 µM on hCA XII [1], greater than 100 µM at hCA II and 3.5 µM on hCA IX [2].
As for `CC(=NNc1ccc(C#N)cc1)c1cc2ccccc2c(=O)o1` [X3, 4–(2-(1–(1-oxo-1H-isochromen-3-yl)ethylidene)hydrazinyl) benzonitrile], the Ki is greater than 100 µM on hCA I, 1.2 µM at hCA XII [1] and greater than 100 µM at hCA II.
As to `CC(=NNc1ccccc1)c1oc(=O)c2ccccc2c1C` [X4, 4-methyl-3–(1-(2-phenylhydrazono)ethyl)-1H-isochromen-1-one], the Ki on hCA I was greater than 100 µM; at hCA XII [1], 2.3 µM; on hCA II, greater than 100 µM; on hCA IX [2], 3.9 µM.
For the compound `CC(=NNc1ccc(Cl)cc1)c1oc(=O)c2ccccc2c1C` [X5, 3–(1-(2–(4-chlorophenyl) hydrazono)ethyl)-4-methyl-1H-isochromen-1-one], the Ki was greater than 100 µM at hCA I, 5.8 µM on hCA XII [1], greater than 100 µM on hCA II and 2.7 µM at hCA IX [2].
Consider `O=Cc1cn(-c2ccccc2)nc1-c1cc2ccccc2c(=O)o1` [X6, 3–(1-oxo-1H-isochromen-3-yl)-1-phenyl-1H-pyrazole-4-carbaldehyde], for which the Ki at hCA I is greater than 100 µM; at hCA XII [1], 6.5 µM; on hCA II it was greater than 100 µM; at hCA IX [2] it was 7.1 µM.
As for `O=Cc1cn(-c2ccc(Cl)cc2)nc1-c1cc2ccccc2c(=O)o1` [X7, 1–(4-chlorophenyl)-3–(1-oxo-1H-isochromen-3-yl)-1H-pyrazole-4-carbaldehyde], the Ki on hCA I is greater than 100 µM; at hCA XII [1] it was 11.6 µM; on hCA II, greater than 100 µM; on hCA IX [2] it was 6.2 µM.
For the compound `N#Cc1ccc(-n2cc(C=O)c(-c3cc4ccccc4c(=O)o3)n2)cc1` [X8, 4–(4-formyl-3–(1-oxo-1H-isochromen-3-yl)-1H-pyrazol-1-yl) benzonitrile], the Ki is greater than 100 µM on hCA I, 8.3 µM on hCA XII [1], greater than 100 µM at hCA II and 8 µM at hCA IX [2].
For `Cc1c(-c2nn(-c3ccccc3)cc2C=O)oc(=O)c2ccccc12` [X9, 3–(4-methyl-1-oxo-1H-isochromen-3-yl)-1-phenyl-1H-pyrazole-4-carbaldehyde], the Ki on hCA I was greater than 100 µM; at hCA XII [1] it was 8.1 µM; on hCA II it was greater than 100 µM; on hCA IX [2], 8.9 µM.
With `Cc1c(-c2nn(-c3ccc(Cl)cc3)cc2C=O)oc(=O)c2ccccc12` [X10, 1–(4-chlorophenyl)-3–(4-methyl-1-oxo-1H-isochromen-3-yl)-1H-pyrazole-4-carbaldehyde], the Ki on hCA I was greater than 100 µM; on hCA XII [1], 13.4 µM; on hCA II, greater than 100 µM; at hCA IX [2], 8.1 µM.
As for `O=C1NC(=O)C(=Cc2cn(-c3ccccc3)nc2-c2cc3ccccc3c(=O)o2)C(=O)N1` [X11, 5-((3–(1-oxo-1H-isochromen-3-yl)-1-phenyl-1H-pyrazol-4-yl)methylene) pyrimidine-2,4,6(1H,3H,5H)-trione], the Ki on hCA I was greater than 100 µM; on hCA XII [1], 41.7 µM; on hCA II, greater than 100 µM; at hCA IX [2], 46.2 µM.
With `O=C1NC(=O)C(=Cc2cn(-c3ccc(Cl)cc3)nc2-c2cc3ccccc3c(=O)o2)C(=O)N1` [X12, 5-((1–(4-chlorophenyl)-3–(1-oxo-1H-isochromen-3-yl)-1H-pyrazol-4-yl)methylene) pyrimidine-2,4,6(1H,3H,5H)-trione], the Ki at hCA I, on hCA IX [3], on hCA II and on hCA XII [4] was greater than 100 µM in each case.
`N#Cc1ccc(-n2cc(C=C3C(=O)NC(=O)NC3=O)c(-c3cc4ccccc4c(=O)o3)n2)cc1` [X13, 4–(3-(1-oxo-1H-isochromen-3-yl)-4-((2,4,6-trioxotetrahydropyrimidin-5(2H)-ylidene)methyl)-1H-pyrazol-1-yl) benzonitrile]: the Ki is greater than 100 µM on hCA I, 36.2 µM at hCA XII [1], greater than 100 µM at hCA II and 62.4 µM at hCA IX [2].
As for `Cc1c(-c2nn(-c3ccccc3)cc2C=C2C(=O)NC(=O)NC2=O)oc(=O)c2ccccc12` [X14, 5-((3–(4-methyl-1-oxo-1H-isochromen-3-yl)-1-phenyl-1H-pyrazol-4-yl)methylene) pyrimidine-2,4,6(1H,3H,5H)-trione], the Ki at hCA I is greater than 100 µM; on hCA XII [1] it was 66.5 µM; on hCA II, greater than 100 µM; at hCA IX [2], 54.6 µM.
As for `Cc1c(-c2nn(-c3ccc(Cl)cc3)cc2C=C2C(=O)NC(=O)NC2=O)oc(=O)c2ccccc12` [X15, 5-((1–(4-chlorophenyl)-3–(4-methyl-1-oxo-1H-isochromen-3-yl)-1H-pyrazol-4-yl)methylene) pyrimidine-2,4,6(1H,3H,5H)-trione], the Ki at hCA I, on hCA IX [3], on hCA II and at hCA XII [4] was greater than 100 µM in each case.
For `O=C1NC(=S)NC(=O)C1=Cc1cn(-c2ccccc2)nc1-c1cc2ccccc2c(=O)o1` [X16, 5-((3–(1-oxo-1H-isochromen-3-yl)-1-phenyl-1H-pyrazol-4-yl)methylene)-2-thioxodihydropyrimidine-4,6(1H,5H)-dione], the Ki on hCA I was greater than 100 µM; at hCA XII [1] it was 47.1 µM; on hCA II it was greater than 100 µM; at hCA IX [2], 49.7 µM.
Consider `O=C1NC(=S)NC(=O)C1=Cc1cn(-c2ccc(Cl)cc2)nc1-c1cc2ccccc2c(=O)o1` [X17, 5-((1–(4-chlorophenyl)-3–(1-oxo-1H-isochromen-3-yl)-1H-pyrazol-4-yl)methylene)-2-thioxodihydropyrimidine-4,6(1H,5H)-dione], for which the Ki on hCA I, at hCA IX [3], on hCA II and on hCA XII [4] was greater than 100 µM throughout.
As to `N#Cc1ccc(-n2cc(C=C3C(=O)NC(=S)NC3=O)c(-c3cc4ccccc4c(=O)o3)n2)cc1` [X18, 4–(4-((4,6-dioxo-2-thioxotetrahydropyrimidin-5(2H)-ylidene)methyl)-3–(1-oxo-1H-isochromen-3-yl)-1H-pyrazol-1-yl) benzonitrile], the Ki at hCA I was greater than 100 µM; at hCA XII [1], 53.4 µM; at hCA II, greater than 100 µM; on hCA IX [2], 78.9 µM.
With `Cc1c(-c2nn(-c3ccccc3)cc2C=C2C(=O)NC(=S)NC2=O)oc(=O)c2ccccc12` [X19, 5-((3–(4-methyl-1-oxo-1H-isochromen-3-yl)-1-phenyl-1H-pyrazol-4-yl)methylene)-2-thioxodihydropyrimidine-4,6(1H,5H)-dione], the Ki was greater than 100 µM on hCA I, 62.8 µM at hCA XII [1], greater than 100 µM at hCA II and 72.3 µM on hCA IX [2].
Take `Cc1c(-c2nn(-c3ccc(Cl)cc3)cc2C=C2C(=O)NC(=S)NC2=O)oc(=O)c2ccccc12` [X20, 5-((1–(4-chlorophenyl)-3–(4-methyl-1-oxo-1H-isochromen-3-yl)-1H-pyrazol-4-yl)methylene)-2-thioxodihydropyrimidine-4,6(1H,5H)-dione]: the Ki at hCA I, on hCA IX [3], at hCA II and on hCA XII [4] was greater than 100 µM throughout.
